In assay [1] the target is T1, Human Neuropeptide Y2 Receptor (Homo sapiens, UniProt P49146).
T1 construct: purchased CHEMICON HTS066M
T1 sequence (P49146 1-381): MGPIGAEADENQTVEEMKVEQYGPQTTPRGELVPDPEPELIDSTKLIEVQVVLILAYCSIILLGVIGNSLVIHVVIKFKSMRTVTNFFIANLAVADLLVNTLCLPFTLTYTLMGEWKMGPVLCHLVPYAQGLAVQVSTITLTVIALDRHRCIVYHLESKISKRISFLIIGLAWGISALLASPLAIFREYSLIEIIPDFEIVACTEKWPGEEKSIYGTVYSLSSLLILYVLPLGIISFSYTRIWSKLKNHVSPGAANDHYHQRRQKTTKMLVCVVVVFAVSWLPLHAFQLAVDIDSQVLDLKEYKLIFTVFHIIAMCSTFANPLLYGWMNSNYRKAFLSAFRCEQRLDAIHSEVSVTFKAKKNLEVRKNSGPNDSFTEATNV
The assay is described as follows: Radioligand binding competition assay (RLB). The note with it: Table 3; human 125I-PYY (1-36) 0.02 nM, Y2 receptor membranes; read-out: Ki. The method, boiled down:
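Membranes (0.5 μg/well) and test peptides, serially diluted from 1 mM DMSO stocks, were incubated 2 hours at room temperature in HEPES buffer pH 7.4 with Mg, Ca and ovalbumin.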

The subject of another assay is normal NMRI mice. The assay can be described thus: Effect on acute food intake in normal NMRI mice. The format is in vivo. The note with it: male NMRI mice, 10 nmol/kg subcutaneously once. The method, then:
Male NMRI mice were obtained from Charles River (Charles River, Research Models & Services Germany GmbH) or from Jan Vier (Jan Vier Labs, France) at 5 weeks of age. […] Room temperature was controlled to 21° C.±1° C., with 60%+20% humidity.
Animals were transferred 5-7 days before the start of the study to a real-time food intake monitoring system, HM-2 system (MBRose, Denmark), to allow acclimatization to experimental conditions. As the animals were uniquely identified with microchips, each individual animal was identified by its microchip upon entry and exit from the food channel. Randomization of the mice for each study group (n=7-8) was based on body weight measured the day before the start of the study. A vehicle-treated (50 mM phosphate buffer pH7 with 5% Mannitol) group was included in each experiment. Six hours before the start of the night phase animals were fasted. One hour before the dark phase animals were dosed once subcutaneously (10 nmol/kg) with test peptide. […] The food intake of the treated groups was normalized (in %) to the average food intake of the group receiving vehicle (Table 7). Statistical significance was evaluated using One-way analysis of variance with Turkey's multiple comparison test. P<0.05 was considered statistically significant.

Each structure is given as a SMILES string. *1 amine or outer side, *2 acyl side, *3 side chain or, on linkers, in order; H or OH if unused. Where a SMILES comes first, the peptide text is derived from it. Side-chain parts run from the residue outwards. The star is where a group is joined. C18 diacid = O=C(O)CCCCCCCCCCCCCCCCC(=O)*; γGlu = O=C(O)[C@H](CCC(=O)[*:2])N[*:1]; Isovaleryl = CC(C)CC(=O)*; AEEA = NCCOCCOCC(=O)O

Take `CC(C)CC(=O)N[C@@H](C)C(=O)N1CCC[C@H]1C(=O)N[C@@H](CCC(=O)O)C(=O)N[C@@H](CCCCNC(=O)COCCOCCNC(=O)COCCOCCNC(=O)CC[C@H](NC(=O)CCCCCCCCCCCCCCCCC(=O)O)C(=O)O)C(=O)N1CCC[C@H]1C(=O)N[C@@H](CCC(=O)O)C(=O)N[C@@H](CCC(=O)O)C(=O)N[C@@H](CCC(=O)O)C(=O)N[C@@H](C)C(=O)N[C@@H](CO)C(=O)N1CCC[C@H]1C(=O)N[C@@H](C)C(=O)N[C@@H](CCC(=O)O)C(=O)N[C@@H](CC(C)C)C(=O)N[C@@H](CCC(N)=O)C(=O)N[C@@H](CCCNC(=N)N)C(=O)N[C@@H](Cc1ccc(O)cc1)C(=O)N[C@@H](Cc1ccc(O)cc1)C(=O)N[C@H](C(=O)N[C@@H](CO)C(=O)N[C@@H](CC(C)C)C(=O)N[C@@H](CCCNC(=N)N)C(=O)N[C@@H](Cc1c[nH]cn1)C(=O)N[C@@H](Cc1ccc(O)cc1)C(=O)N[C@@H](Cc1ccc(O)cc1)C(=O)N[C@@H](CC(N)=O)C(=O)N[C@@H](Cc1c[nH]c2ccccc12)C(=O)N[C@@H](CC(C)C)C(=O)N[C@H](C(=O)N[C@@H](CCCNC(=N)N)C(=O)N[C@@H](CCC(N)=O)C(=O)N[C@@H](CCCNC(=N)N)C(=O)N[C@@H](Cc1ccc(O)cc1)C(N)=O)[C@@H](C)O)C(C)C` [Compound 3, N{alpha-4}-(3-methylbutanoyl)-N{epsilon-7}-[2-(2-{2-[2-(2-{2-[(4S)-4-carboxy-4-(17-carboxyheptadecanamido)butanamido]ethoxy}ethoxy)acetamido]ethoxy}ethoxy)acetamido]-[4A,7K,9E,11E,15A,18Q,22V,28Y,30W,31L]hPYY (4-36)] (Isovaleryl-APEK([AEEA-AEEA-γGlu-C18 diacid])PEEEASPAELQRYYVSLRHYYNWLTRQRY-NH2): the inhibition constant Ki in assay [1] is 3.14 nM. Further, the “Acute Food Intake 24 h [% vehicle]” value in the assay with normal NMRI mice amounted to 62 % vehicle.

On to `CC(C)CC(=O)N[C@@H](C)C(=O)N1CCC[C@H]1C(=O)N[C@@H](CCC(=O)O)C(=O)N[C@@H](CCCCNC(=O)COCCOCCNC(=O)COCCOCCNC(=O)CC[C@H](NC(=O)CCCCCCCCCCCCCCCCC(=O)O)C(=O)O)C(=O)N1CCC[C@H]1C(=O)N[C@@H](CCC(=O)O)C(=O)N[C@@H](CCC(=O)O)C(=O)N[C@@H](CC(=O)O)C(=O)N[C@@H](C)C(=O)N[C@@H](CO)C(=O)N1CCC[C@H]1C(=O)N[C@@H](CCC(=O)O)C(=O)N[C@@H](CCC(=O)O)C(=O)N[C@@H](CC(C)C)C(=O)N[C@@H](CCC(N)=O)C(=O)N[C@@H](C)C(=O)N[C@@H](Cc1ccc(O)cc1)C(=O)N[C@@H](Cc1ccc(O)cc1)C(=O)N[C@H](C(=O)N[C@@H](CO)C(=O)N[C@@H](CC(C)C)C(=O)N[C@@H](CCCNC(=N)N)C(=O)N[C@@H](Cc1c[nH]cn1)C(=O)N[C@@H](Cc1ccc(O)cc1)C(=O)N[C@@H](Cc1ccc(O)cc1)C(=O)N[C@@H](CC(N)=O)C(=O)N[C@@H](Cc1c[nH]c2ccccc12)C(=O)N[C@@H](CC(C)C)C(=O)N[C@H](C(=O)N[C@@H](CCCNC(=N)N)C(=O)N[C@@H](CCC(N)=O)C(=O)N[C@@H](CCCNC(=N)N)C(=O)N[C@@H](Cc1ccc(O)cc1)C(N)=O)[C@@H](C)O)C(C)C` [Compound 7, N{alpha-4}-(3-methylbutanoyl)-N{epsilon-7}-[2-(2-{2-[2-(2-{2-[(4S)-4-carboxy-4-(17-carboxyheptadecanamido)butanamido]ethoxy}ethoxy)acetamido]ethoxy}ethoxy)acetamido]-[4A,7K,9E,18Q,19A,22V,28Y,30W,31L]hPYY (4-36)], for which the inhibition constant Ki in assay [1] was 1.02 nM. Also, the “Acute Food Intake 24 h [% vehicle]” value in the assay on normal NMRI mice was 47 % vehicle.

Take `CC[C@H](C)[C@H](NC(=O)[C@H](CCC(=O)O)NC(=O)[C@H](CCC(=O)O)NC(=O)[C@@H]1CCCN1C(=O)[C@H](CO)NC(=O)[C@H](C)NC(=O)[C@H](CC(=O)O)NC(=O)[C@H](CCC(=O)O)NC(=O)[C@H](CCC(=O)O)NC(=O)[C@@H]1CCCN1C(=O)[C@H](CCCCNC(=O)COCCOCCNC(=O)COCCOCCNC(=O)CC[C@H](NC(=O)CCCCCCCCCCCCCCCCC(=O)O)C(=O)O)NC(=O)[C@H](CCC(=O)O)NC(=O)[C@@H]1CCCN1C(=O)[C@H](C)NC(=O)CC(C)C)C(=O)N[C@@H](CCC(N)=O)C(=O)N[C@@H](CCCNC(=N)N)C(=O)N[C@@H](Cc1ccc(O)cc1)C(=O)N[C@@H](Cc1ccc(O)cc1)C(=O)N[C@H](C(=O)N[C@@H](CCC(=O)O)C(=O)N[C@@H](CC(C)C)C(=O)N[C@@H](CCCNC(=N)N)C(=O)N[C@@H](Cc1c[nH]cn1)C(=O)N[C@@H](Cc1ccc(O)cc1)C(=O)N[C@@H](Cc1ccc(O)cc1)C(=O)N[C@@H](CC(N)=O)C(=O)N[C@@H](Cc1c[nH]c2ccccc12)C(=O)N[C@@H](CC(C)C)C(=O)N[C@H](C(=O)N[C@@H](CCCNC(=N)N)C(=O)N[C@@H](CCC(N)=O)C(=O)N[C@@H](CCCNC(=N)N)C(=O)N[C@@H](Cc1ccc(O)cc1)C(N)=O)[C@@H](C)O)C(C)C` [Compound 9, N{alpha-4}-(3-methylbutanoyl)-N{epsilon-7}-[2-(2-{2-[2-(2-{2-[(4S)-4-carboxy-4-(17-carboxyheptadecanamido)butanamido]ethoxy}ethoxy)acetamido]ethoxy}ethoxy)acetamido]-[4A,7K,9E,17I,18Q,22V,23E,28Y,30W,31L]hPYY (4-36)]: the Ki in assay [1] was 1.22 nM. Besides, in the assay with normal NMRI mice, the “Acute Food Intake 24 h [% vehicle]” value is recorded as 44 % vehicle.

As to `CC(C)CC(=O)N[C@@H](C)C(=O)N1CCC[C@H]1C(=O)N[C@@H](CCC(=O)O)C(=O)N[C@@H](CCCCNC(=O)COCCOCCNC(=O)COCCOCCNC(=O)CC[C@H](NC(=O)CCCCCCCCCCCCCCCCC(=O)O)C(=O)O)C(=O)N1CCC[C@H]1C(=O)N[C@@H](CCC(=O)O)C(=O)N[C@@H](C)C(=O)N[C@@H](CC(=O)O)C(=O)N[C@@H](C)C(=O)N[C@@H](CO)C(=O)N1CCC[C@H]1C(=O)N[C@@H](CCC(=O)O)C(=O)N[C@@H](CCC(=O)O)C(=O)N[C@@H](CC(C)C)C(=O)N[C@@H](CCC(=O)O)C(=O)N[C@@H](CCC(N)=O)C(=O)N[C@@H](Cc1ccc(O)cc1)C(=O)N[C@@H](Cc1ccc(O)cc1)C(=O)N[C@H](C(=O)N[C@@H](CO)C(=O)N[C@@H](CC(C)C)C(=O)N[C@@H](CCCNC(=N)N)C(=O)N[C@@H](Cc1c[nH]cn1)C(=O)N[C@@H](Cc1ccc(O)cc1)C(=O)N[C@@H](Cc1ccc(O)cc1)C(=O)N[C@@H](CC(N)=O)C(=O)N[C@@H](Cc1c[nH]c2ccccc12)C(=O)N[C@@H](CC(C)C)C(=O)N[C@H](C(=O)N[C@@H](CCCNC(=N)N)C(=O)N[C@@H](CCC(N)=O)C(=O)N[C@@H](CCCNC(=N)N)C(=O)N[C@@H](Cc1ccc(O)cc1)C(N)=O)[C@@H](C)O)C(C)C` [Compound 159, N{alpha-4}-(3-methylbutanoyl)-N{epsilon-7}-[2-(2-{2-[2-(2-{2-[(4S)-4-carboxy-4-(17-carboxyheptadecanamido)butanamido]ethoxy}ethoxy)acetamido]ethoxy}ethoxy)acetamido]-[4A,7K,9E,10A,18E,19Q,22V,28Y,30W,31L]hPYY (4-36)], the “Acute Food Intake 24 h [% vehicle]” value in the assay with normal NMRI mice was 53 % vehicle.

For `CC(C)CC(=O)N[C@@H](C)C(=O)N1CCC[C@H]1C(=O)N[C@@H](CCC(=O)O)C(=O)N[C@@H](CCCCNC(=O)COCCOCCNC(=O)COCCOCCNC(=O)CC[C@H](NC(=O)CCCCCCCCCCCCCCCCC(=O)O)C(=O)O)C(=O)N1CCC[C@H]1C(=O)N[C@@H](CCC(=O)O)C(=O)N[C@@H](CCC(=O)O)C(=O)N[C@@H](CC(=O)O)C(=O)N[C@@H](C)C(=O)N[C@@H](CO)C(=O)N1CCC[C@H]1C(=O)N[C@@H](CCC(=O)O)C(=O)N[C@@H](CCC(=O)O)C(=O)N[C@@H](CC(C)C)C(=O)N[C@@H](CCC(N)=O)C(=O)N[C@@H](CCC(N)=O)C(=O)N[C@@H](Cc1ccc(O)cc1)C(=O)N[C@@H](CCC(=O)O)C(=O)N[C@H](C(=O)N[C@@H](CO)C(=O)N[C@@H](CC(C)C)C(=O)N[C@@H](CCCNC(=N)N)C(=O)N[C@@H](Cc1c[nH]cn1)C(=O)N[C@@H](Cc1ccc(O)cc1)C(=O)N[C@@H](Cc1ccc(O)cc1)C(=O)N[C@@H](CC(N)=O)C(=O)N[C@@H](Cc1c[nH]c2ccccc12)C(=O)N[C@@H](CC(C)C)C(=O)N[C@H](C(=O)N[C@@H](CCCNC(=N)N)C(=O)N[C@@H](CCC(N)=O)C(=O)N[C@@H](CCCNC(=N)N)C(=O)N[C@@H](Cc1ccc(O)cc1)C(N)=O)[C@@H](C)O)C(C)C` [Compound 167, N{alpha-4}-(3-methylbutanoyl)-N{epsilon-7}-[2-(2-{2-[2-(2-{2-[(4S)-4-carboxy-4-(17-carboxyheptadecanamido)butanamido]ethoxy}ethoxy)acetamido]ethoxy}ethoxy)acetamido]-[4A,7K,9E,18Q,19Q,21E,22V,28Y,30W,31L]hPYY (4-36)] (Isovaleryl-APEK([AEEA-AEEA-γGlu-C18 diacid])PEEDASPEELQQYEVSLRHYYNWLTRQRY-NH2), the “Acute Food Intake 24 h [% vehicle]” value in the assay on normal NMRI mice was 73 % vehicle.

Source of the values: patent US12559529B2, “NPY2 receptor agonists” (Boehringer Ingelheim International GmbH, priority 2019, dated 2026).
